Test results as given in patent publication US20250145589A1, “PYRIDINE DERIVATIVE AND USE THEREOF” (SICHUAN HUIYU PHARMACEUTICAL CO., LTD., priority 2021, published 2025).
Like-named read-outs stand apart in the source and are kept apart here.

Assays:
[1] = tested on: MIA PaCa-2 cells (KRAS G12C mutant); assay: MIA PaCa-2 cell anti-proliferation (CellTiter-Glo); assay type: cell-based; conditions: Homo sapiens, 72 h; MIA Paca-2 cells, 3 days, Table 7; read-out: MIA PaCa-2 (IC50)
Outline: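 Viable-cell luminescence (CellTiter-Glo, ≥30 min at 25 °C) measured after a 3-day, 37 °C exposure to compounds at 9 points, 4-fold spaced, in DMEM containing 10% FBS plus 2.5% horse serum. IC50 derived versus no-inhibitor wells.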

[2] = target: KRAS^G12C-SOS1 (Homo sapiens (Human), UniProt P01116, G12C); assay: HTRF KRAS G12C/SOS1 binding assay; conditions: Table 5
KRAS^G12C-SOS1, sequence (P01116-2 other isoform, or with tags, fused parts or gaps G12C): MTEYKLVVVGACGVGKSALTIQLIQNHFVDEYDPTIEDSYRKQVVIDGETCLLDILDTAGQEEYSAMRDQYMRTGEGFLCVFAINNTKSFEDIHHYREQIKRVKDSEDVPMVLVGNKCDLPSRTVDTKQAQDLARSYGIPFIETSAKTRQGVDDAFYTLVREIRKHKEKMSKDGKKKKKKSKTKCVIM
Method: Initially, a 2 mM stock solution of the test compound (dissolved in DMSO) was serially diluted in five-fold concentrations using DMSO to obtain eight working solutions 1 (200×). Subsequently, each of the eight working solutions 1 was further diluted in a 20-fold gradient by adding 5 μL into 95 μL of Diluent buffer, mixed completely with vortex mixer, resulting in eight working solutions 2 (10×). […] Subsequently, 5 μL of Anti-tag 1-Tb^3+ stock solution and 5 μL of Anti-tag2-XL665 were added to each well, mixed, and incubated at 4° C. for 3 hours. Remove the plate and read on an HTRF® compatible reader, with the excitation light wavelength set at 337 nm and readings recorded at 620 nm and 665 nm. The data results were presented as the ratio of the 665 nm signal value to the 620 nm signal value for each well, calculated as follows: […]. The inhibition rate was calculated using the following formula: […]
Data were analyzed using GraphPad Prism with log (inhibitor) vs. response-Variable Slope (four parameters) fitting calculations for IC50 values.

[3] = tested on: NCI-H358 cells (KRAS G12C mutant); assay: NCI-H358 cell proliferation inhibition (CellTiter-Glo); assay type: cell-based; conditions: Homo sapiens, NCI-H358, 72 h; H358 cells (G12C mutation), 3 days, Table 6; read-out: NCI-H358 (IC50)
[4] = target: PI3Kδ (Homo sapiens (Human), UniProt O00329); assay: Inhibition of PI3Kδ efficacy assay (ADP-Glo kinase assay); assay type: biochemical; conditions: read-out: PI3Kδ inhibitory activity (IC50)
PI3Kδ, sequence (O00329 whole entry): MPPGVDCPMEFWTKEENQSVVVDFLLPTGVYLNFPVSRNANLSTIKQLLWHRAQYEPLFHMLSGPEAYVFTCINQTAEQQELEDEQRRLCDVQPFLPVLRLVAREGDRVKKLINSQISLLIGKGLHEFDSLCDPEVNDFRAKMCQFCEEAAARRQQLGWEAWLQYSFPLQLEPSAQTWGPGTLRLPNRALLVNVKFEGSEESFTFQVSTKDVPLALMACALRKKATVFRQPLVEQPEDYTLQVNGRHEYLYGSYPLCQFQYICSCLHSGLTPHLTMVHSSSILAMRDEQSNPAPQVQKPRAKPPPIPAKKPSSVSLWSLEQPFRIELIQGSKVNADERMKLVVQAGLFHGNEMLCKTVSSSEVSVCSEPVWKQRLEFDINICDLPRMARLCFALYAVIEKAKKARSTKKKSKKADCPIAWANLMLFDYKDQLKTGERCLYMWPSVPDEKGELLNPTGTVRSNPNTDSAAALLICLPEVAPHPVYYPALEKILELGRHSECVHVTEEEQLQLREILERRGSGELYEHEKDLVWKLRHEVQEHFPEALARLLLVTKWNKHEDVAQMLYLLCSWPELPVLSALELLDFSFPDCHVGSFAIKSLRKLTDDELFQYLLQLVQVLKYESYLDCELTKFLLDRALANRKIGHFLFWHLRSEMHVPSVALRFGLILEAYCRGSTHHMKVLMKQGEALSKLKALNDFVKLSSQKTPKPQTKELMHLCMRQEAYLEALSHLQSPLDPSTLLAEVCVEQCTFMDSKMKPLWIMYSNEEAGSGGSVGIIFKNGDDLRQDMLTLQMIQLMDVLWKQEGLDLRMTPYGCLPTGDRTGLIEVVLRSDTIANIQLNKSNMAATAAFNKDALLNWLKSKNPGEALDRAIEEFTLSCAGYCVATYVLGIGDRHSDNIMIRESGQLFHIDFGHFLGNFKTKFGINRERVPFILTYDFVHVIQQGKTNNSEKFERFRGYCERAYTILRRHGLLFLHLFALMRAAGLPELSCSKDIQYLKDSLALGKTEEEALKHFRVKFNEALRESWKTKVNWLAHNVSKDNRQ
PI3Kδ, sequence (P27986 whole entry partner): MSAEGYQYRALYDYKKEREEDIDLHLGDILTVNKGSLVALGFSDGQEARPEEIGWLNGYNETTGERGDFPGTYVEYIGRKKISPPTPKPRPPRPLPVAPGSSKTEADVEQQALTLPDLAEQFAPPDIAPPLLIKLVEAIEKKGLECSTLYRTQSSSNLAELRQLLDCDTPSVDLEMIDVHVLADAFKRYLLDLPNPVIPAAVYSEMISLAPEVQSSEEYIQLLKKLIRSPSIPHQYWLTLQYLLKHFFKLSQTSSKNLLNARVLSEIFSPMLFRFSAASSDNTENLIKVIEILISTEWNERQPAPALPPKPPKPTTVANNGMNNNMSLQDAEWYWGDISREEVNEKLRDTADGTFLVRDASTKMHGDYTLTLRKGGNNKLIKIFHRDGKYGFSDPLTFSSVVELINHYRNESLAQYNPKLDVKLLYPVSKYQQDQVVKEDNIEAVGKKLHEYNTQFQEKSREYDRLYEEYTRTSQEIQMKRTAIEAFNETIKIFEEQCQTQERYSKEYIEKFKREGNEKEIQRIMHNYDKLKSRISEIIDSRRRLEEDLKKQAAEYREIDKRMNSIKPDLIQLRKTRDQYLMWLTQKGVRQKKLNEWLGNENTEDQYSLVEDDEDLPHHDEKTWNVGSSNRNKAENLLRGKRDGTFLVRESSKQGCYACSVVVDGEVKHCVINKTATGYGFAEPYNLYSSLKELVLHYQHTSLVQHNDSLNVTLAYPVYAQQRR
Outline: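 Luminescent ADP-Glo readout of PI3Kδ: after a 60 min RT reaction with PI/ATP substrate, ATP depletion (40 min) and ADP detection (40 min) steps followed. Compounds tested as eight five-fold serial dilutions; inhibition rates fitted to log(inhibitor) vs. response, variable slope, for IC50.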

[5] = target: PI3Kα (Homo sapiens (Human), UniProt P42336); assay: Inhibition of PI3Kα efficacy assay (ADP-Glo kinase assay); assay type: biochemical; conditions: read-out: PI3Kα inhibitory activity (IC50)
PI3Kα, sequence (P42336 whole entry): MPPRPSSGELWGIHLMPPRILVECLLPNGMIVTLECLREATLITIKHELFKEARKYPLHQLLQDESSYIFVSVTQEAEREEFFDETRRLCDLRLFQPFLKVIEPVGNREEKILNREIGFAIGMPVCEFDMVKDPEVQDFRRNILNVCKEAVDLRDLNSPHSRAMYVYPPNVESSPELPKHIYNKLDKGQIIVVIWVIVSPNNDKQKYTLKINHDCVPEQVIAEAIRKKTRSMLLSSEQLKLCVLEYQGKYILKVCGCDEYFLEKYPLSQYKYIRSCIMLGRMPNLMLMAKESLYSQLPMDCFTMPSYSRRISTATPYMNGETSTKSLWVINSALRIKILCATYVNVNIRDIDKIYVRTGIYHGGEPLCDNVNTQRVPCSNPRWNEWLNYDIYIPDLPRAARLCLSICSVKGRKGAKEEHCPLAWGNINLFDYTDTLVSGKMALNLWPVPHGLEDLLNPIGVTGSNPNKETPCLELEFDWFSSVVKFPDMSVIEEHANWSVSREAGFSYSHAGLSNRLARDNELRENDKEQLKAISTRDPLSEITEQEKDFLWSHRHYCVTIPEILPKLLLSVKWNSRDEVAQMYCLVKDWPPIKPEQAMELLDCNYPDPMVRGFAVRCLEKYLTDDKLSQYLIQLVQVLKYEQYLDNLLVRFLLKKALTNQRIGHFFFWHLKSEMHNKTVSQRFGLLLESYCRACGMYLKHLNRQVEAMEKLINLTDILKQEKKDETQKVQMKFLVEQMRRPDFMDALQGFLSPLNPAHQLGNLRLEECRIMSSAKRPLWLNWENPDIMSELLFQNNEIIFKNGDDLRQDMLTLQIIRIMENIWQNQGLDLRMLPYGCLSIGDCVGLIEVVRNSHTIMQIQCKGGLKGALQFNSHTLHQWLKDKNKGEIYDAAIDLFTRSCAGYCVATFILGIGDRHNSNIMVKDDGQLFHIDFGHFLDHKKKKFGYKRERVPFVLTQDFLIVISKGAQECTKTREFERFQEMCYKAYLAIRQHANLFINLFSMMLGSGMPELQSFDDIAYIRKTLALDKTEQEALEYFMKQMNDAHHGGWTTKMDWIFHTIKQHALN
PI3Kα, sequence (P27986 whole entry partner): as the sequence (P27986 whole entry partner) above
Outline: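 Eight five-fold dilutions of compound (2 mM DMSO stock) tested; kinase reaction with PI and ATP ran 60 min at RT, followed by ADP-Glo and detection reagent steps of 40 min each. Four-parameter logistic fitting gave IC50 values.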

[6] = tested on: NCI-H358-AMGR drug-resistant cell line; assay: NCI-H358-AMGR drug-resistant cell proliferation inhibitory activity test; assay type: cell-based; conditions: 72 h; NCI-H358-AMGR drug-resistant cells, 3 days incubation, CellTiter-Glo
Method: Test Example 6t Generation of NCI-H358-AMGR Drug-Resistant Cell Line
NCI-H358 cells were seeded and cultured at 50 to 70% confluence in six-well plate with RPMI-640 (10% FBS) medium at 37° C. with 5%4 CO2. AMG510 was added for induction at three starting concentrations of 1 nM, 10 nM and 50 nM, and the medium containing the same concentration of AMG510 was replaced every 3 days. Cells were passaged once they reached confluence. After every, two passages at a given concentration of drug, the concentration was increased in a 3-old increment until final concentrations of 1 μM for AMG510 was achieved.
NCI-H358-AMGR cells in logarithmic growth phase were collected and seeded into a clear-bottom 96-well plate at a density of 4×10^3 cells per well in 80 μL of medium, and then incubated overnight at 37° C. with 5% CO2. The compounds were serially diluted 5-fold in DMSO to obtain 8 concentrations, and then further diluted with RPMI-640) (10% FBS) cell culture medium to obtain the working solutions (5×), 20 μL of each working solution was added to the cell culture supernatant in each well, and the plate was further incubated for 3 days at 37° C. with 5% CO2. The plate was then equilibrated with CellTiter-Glo® reagent at room temperature (25° C.) for 10-30 minutes. After aspirating 50 μL of the medium, 50 μL of CellTiter-Glo®, reagent was added. The cells were thoroughly mixed with the CellTiter-Glo®, reagent using a microplate shaker for 2 minutes, and then incubated at room temperature for 10 minutes. The […] was placed in a multi-mode microplate reader to record the luminescence values (RLU).
The inhibitory rate was calculated using the following formula: […]
Data were analyzed using GraphPad Prism for IC50 values (Note: The negative control refers to the group without inhibitor).

| Compound | IC50 [1] [nM] | IC50 [2] [nM] | IC50 [3] [nM] | IC50 ([4]; Table 2) [nM] | IC50 ([5]; Table 2) [nM] | IC50 ([4]; Table 3) [nM] | IC50 ([5]; Table 3) [nM] | IC50 [6] [nM] | IC50 ([4]; Table 4) [nM] | IC50 ([5]; Table 4) [nM] | IC50 ([4]; Table 1) [nM] | IC50 ([5]; Table 1) [nM] |
| --- | --- | --- | --- | --- | --- | --- | --- | --- | --- | --- | --- | --- |
| COc1ncc(-c2ccc3ncnc(N4CCN(C(=O)/C=C/C(C)=O)CC4)c3c2)cc1NS(=O)(=O)c1ccncc1F [Example 103, (E)-3-fluoro-N-(2-methoxy-5-(4-(4-(4-oxopent-2-enoyl)piperazin-1-yl)quinazolin-6-yl)pyridin-3-yl)pyridine-4-sulfonamide] | 344 | 203 | 83 | 32.2 | 0.95 |  |  |  |  |  |  |  |
| COc1ncc(-c2ccc3ncnc(N4CCN(C(=O)/C=C/C(C)=O)CC4)c3n2)cc1NS(=O)(=O)c1ccccc1F [Example 133, (E)-2-fluoro-N-(2-methoxy-5-(4-(4-(4-oxopent-2-enoyl)piperazin-1-yl)pyrido[3,2-d]pyrimidin-6-yl)pyridin-3-yl)benzenesulfonamide] | 12 | 251 | 4.1 |  |  | 20.4 | 5.4 |  |  |  |  |  |
| CC(=O)/C=C/C(=O)N1CCN(c2ncnc3ccc(-c4cnc(Cl)c(NS(=O)(=O)c5c(F)cccc5F)c4)cc23)CC1 [Example 84, (E)-N-(2-chloro-5-(4-(4-(4-oxopent-2-enoyl)piperazin-1-yl)quinazolin-6-yl)pyridin-3-yl)-2,6-difluorobenzenesulfonamide] | 245 | 268 | 13 | 7.6 | 0.83 |  |  | 639 |  |  |  |  |
| CC(=O)/C=C/C(=O)N1CCN(c2ncnc3ccc(-c4cnc(N(C)C)c(NS(=O)(=O)c5ccc(F)cc5F)c4)cc23)CC1 [Example 195, (E)-N-(2-(dimethylamino)-5-(4-(4-(4-oxopent-2-enoyl)piperazin-1-yl)quinazolin-6-yl)pyridin-3-yl)-2,4-difluorobenzenesulfonamide] | 93.3 | 158 | 43.9 |  |  |  |  | 92.3 | 13.5 | 2.4 |  |  |
| CC(=O)/C=C/C(=O)N1CCN(c2ncnc3ccc(-c4cnc(Cl)c(NS(=O)(=O)c5c(F)cccc5F)c4)cc23)[C@@H](C)C1 [Example 88, (S,E)-N-(2-chloro-5-(4-(2-methyl-4-(4-oxopent-2-enoyl)piperazin-1-yl)quinazolin-6-yl)pyridin-3-yl)-2,6-difluorobenzenesulfonamide] | 333 | 219 | 80.9 | 11.8 | 2.6 |  |  |  |  |  |  |  |
| CNC(=O)/C=C/C(=O)N1CCN(c2ncnc3ccc(-c4cnc(OC)c(NS(=O)(=O)c5ccc(F)cc5F)c4)cc23)CC1 [Example 179, (E)-4-(4-(6-(5-((2,4-difluorophenyl)sulfonamido)-6-methoxy-pyridin-3-yl)quinazolin-4-yl)piperazin-1-yl)-N-methyl-4-oxobut-2-enamide] | 87.8 | 147 | 276 |  |  |  |  |  |  | 0.37 |  |  |
| COc1ncc(-c2ccc3ncnc(N4CC5CCC(C4)N5C(=O)/C=C/C(C)=O)c3c2)cc1NS(=O)(=O)c1ccc(F)cc1F [Example 58, 2,4-difluoro-N-(2-methoxy-5-(4-(8-((E)-4-oxopent-2-enoyl)-3,8-diazabicyclo[3.2.1]octan-3-yl)quinazolin-6-yl)pyridin-3-yl)benzenesulfon-amide] | 26.2 | 278 | 18.1 | 8.3 | 3.6 |  |  | 100 |  |  |  |  |
| COc1ncc(-c2ccc3ncnc(N4CCN(C(=O)/C=C/C(C)=O)CC4)c3c2)cc1NS(=O)(=O)c1cc(Cl)cn1C [Example 104, (E)-4-Chloro-N-(2-methoxy-5-(4-(4-(4-oxopent-2-enoyl)piperazin-1-yl)quinazoline-6-yl)pyridin-3-yl)-1-methyl-1H-pyrrole-2-sulfonamide] | 139 | 169 | 74.2 | 32.2 | 3.8 |  |  |  |  |  |  |  |
| CC(=O)/C=C/C(=O)N1CCN(c2ncnc3ccc(-c4cnc(Cl)c(NS(=O)(=O)c5ccc(F)cc5F)c4)cc23)CC1 [Example 34, (E)-N-(2-chloro-5-(4-(4-(4-oxopent-2-enoyl)piperazin-1-yl)quinazolin-6-yl)pyridin-3-yl)-2,4-difluorobenzenesulfonamide] | 254 | 521 |  |  |  |  |  |  |  |  | 20.8 | 1.4 |
| COc1ncc(-c2ccc3ncnc(N4CCN(C(=O)/C=C/C(C)=O)CC4)c3n2)cc1NS(=O)(=O)c1ccc(F)cc1F [Example 132, (E)-2,4-difluoro-N-(2-methoxy-5-(4-(4-(4-oxopent-2-enoyl)piperazin-1-yl)pyrido[3,2-d]pyrimidin-6-yl)pyridin-3-yl)benzenesulfonamide] | 16.1 | 318 | 4 |  |  | 29.2 | 3.6 |  |  |  |  |  |
| COc1ncc(-c2ccc3ncnc(N4CCC5(CN(C(=O)/C=C/C(C)=O)C5)C4)c3c2)cc1NS(=O)(=O)c1c(F)cc(F)cc1F [Example 97, (E)-2,4,6-trifluoro-N-(2-methoxy-5-(4-(2-(4-oxopent-2-enoyl)-2,6-diazaspiro[3.4]octan-6-yl)quinazolin-6-yl)pyridin-3-yl)benzenesulfonamide] | 109 | 101 | 13.7 | 14.1 | 1.4 |  |  |  |  |  |  |  |
| CC(=O)/C=C/C(=O)N1CCN(c2ncnc3ccc(-c4cnc(Cl)c(NS(=O)(=O)c5c(F)cc(F)cc5F)c4)cc23)CC1 [Example 89, (E)-N-(2-chloro-5-(4-(4-(4-oxopent-2-enoyl)piperazin-1-yl)quinazolin-6-yl)pyridin-3-yl)-2,4,6-trifluorobenzenesulfonamide] | 511 | 404 | 81.4 | 8.6 | 2.2 |  |  |  |  |  |  |  |
